{
  "source": "patent US20260207586A1",
  "about": "“PHARMACEUTICAL COMPOSITION COMPRISING LURBINECTEDIN, PREPARATION METHOD THEREFOR, AND USE THEREOF” (BrightGene Bio-Medical Technology Co., Ltd., priority 2022, published 2026)",
  "origin": "cited, not measured here",
  "data": [
    {"smiles": "COc1ccc2[nH]c3c(c2c1)CCN[C@]31CS[C@@H]2c3c(OC(C)=O)c(C)c4c(c3[C@H](COC1=O)N1[C@@H]2[C@H]2c3c(cc(C)c(OC)c3O)C[C@@H]([C@@H]1O)N2C)OCO4", "note": "[Lurbinectedin]", "values": [
      {"measurement": "Solubility in water", "result": "limited"},
      {"measurement": "Storage time under refrigeration", "setting": "5° C.", "result": 1, "unit": "month"},
      {"measurement": "Stability at room temperature", "setting": "25° C.", "result": "rapidly degraded"}
    ]}
  ]
}
